This note sets out measurements from patent publication US20090019923A1, “Method for measuring octanol-water distribution coefficients of surfactants” (Clariant International Ltd., priority 2007, published 2009).

This series in a line: octanol-water distribution coefficient by slow stirring, evaporation/re-dissolution and surface tension vs. concentration calibration curve. As to conditions: for conc. Caq (concentration in the aqueous layer): after equilibration with octanol, initial 1 g/L; for logP: initial 1 g/L in aqueous layer, residue in 0.2 M KCl, single samples of replicates A, B.

Several values for one entry are separate records, joined by “and”; a condition that tells them apart may be missing. Identical values can stand only once.

Protocol: Aqueous surfactant solution is equilibrated with octanol. The concentration of surfactant in the aqueous phase after equilibration is determined from the surface tension using a calibration curve. Interference from octanol is prevented by first removing it by evaporation and re-dissolution. The concentration of surfactant in the octanol layer is calculated from the change in concentration in the aqueous layer. Alternatively an aliquot of the octanol layer can be evaporated and re-dissolved in water to determine the concentration directly via surface tension.
Preferably, equal or approximately equal volumes of water and octanol are used. The preferred method is stirring slowly for several hours. The minimum stirring time required will depend on the system and can, if necessary, be determined by running experiments with different stirring times. […] The stirring speed must be kept low enough for there to be two distinct phases during the whole course of the experiment. Other types of agitation (e.g. shaking, rolling, vibration) may also be used, provided they are gentle enough to avoid any mixing of the phases.
Evaporating an aliquot of the aqueous phase and re-dissolving the residue in water or electrolyte solution. This removes octanol, which is surface active and would therefore interefere with the subsequent concentration determination via surface tension. It is covenient to take an aliquot of between 1 and 10 mL and re-dissolve in a larger volume of water (20-500 mL).
The surface tension may be measured by any convenient method, for example, the plate, ring or bubble pressure methods. Preferably a method should be used which allows an equilibration time of several minutes e.g. the plate method.
The calibration curve is obtained by measuring the surface tension of the surfactant at various concentrations. Exactly the same procedure should be used as for the re-dissolved residue solution. If an electrolyte solution is used in the dilution step, it must also be used for the calibration curve.
P=Vaq(c0−caq)/(Voctcaq) (2)
P=Vaq(c0−caq)/(Voctcnon-micellised) (3) • For cmc<caq cnon-micellised=cmc • For cmc≧caq cnon-micellised=caq
Equilibration experiment: 100 mL of a 1 g/L aqueous solution of the surfactant and 100 mL octanol were placed in a conical flask. The two-phase system was stirred for eight hours on a magnetic stirrer. The stirring speed (100 rpm) was low enough for there to be two distinct layers. After the stirrer was switched off, the system was allowed to stand overnight. Then a 2 mL sample of the aqueous phase was placed in a tensiometer glass and evaporated to dryness in a drying cabinet. The residue was redissolved in 50 mL of 0.2 M KCl. The surface tension of this solution was measured with the Pt plate method. The solution was then diluted five times with 0.2 M KCl and the surface tension measured again. The concentration of surfactant was determined by comparison with a calibration curve. A duplicate experiment was run to check the reproducibility.
Equilibration experiment: 100 mL of a 1 g/L aqueous solution of the surfactant and 100 mL octanol were placed in a conical flask. The two-phase system was stirred for eight hours on a magnetic stirrer. The stirring speed (100 rpm) was low enough for there to be two distinct layers. After the stirrer was switched off, the system was allowed to stand overnight. Then a 2 mL sample of the aqueous phase was placed in a tensiometer glass evaporated to dryness in a drying cabinet. The residue was redissolved in 50 mL of 0.2 M KCl. The surface tension of this solution was measured with the Pt plate method. The concentration of surfactant was determined by comparison with a calibration curve.

Where the note is “aqueous layer at equilibrium, cmc greater than caq”, C10-C13 linear alkylbenzene sulfonate came in with a Non-micellised surfactant cnon-micellised of 0.16 g/L. In addition, the “Equilibrium concentration in aqueous layer, caq” value (original concentration 1 g/L, 100 mL water/100 mL octanol, stirred 8 h) turned out to be 0.16 g/L. Besides, the “Concentation in octanol layer, c0-caq” value (original concentration 1 g/L, from mass balance) was found to be 840 µg/mL.
In the case of C22-amidoamine betaine, the “conc. Caq (concentration in the aqueous layer)” value is 550 µg/mL and 630 µg/mL and 600 µg/mL (dilution factor 25); 570 µg/mL and 590 µg/mL and 630 µg/mL (dilution factor 125). In addition, the logP is, setting by setting: (100 mL water/100 mL octanol, stirred 8 h, dilution factor 25) −0.09 and −0.22 and −0.18; (100 mL water/100 mL octanol, stirred 8 h, dilution factor 125) −0.12 and −0.15 and −0.22. This substance also displayed a logP mean (initial concentration in the aqueous layer 1 g/L, mean of all samples and dilutions) of −0.17.
